Experimental data: US10166216B2 (Rigel Pharmaceuticals, Inc., priority 2006, dated 2019)

What follows are molecules tested against Axl (Homo sapiens (Human), UniProt P30530) (assay: Phospho-Akt in-cell Western assay (Axl-antibody cross-linking stimulation)). Conditions: inhibition of Axl activity, Hela cells, phospho-Akt readout; Table 1, formula (Ia1).
Type: cell-based
In short: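 HeLa cells on poly-L-lysine, starved 24 hrs with Axl/Fc, pre-treated with compound 1 hr at 37° C., then stimulated 5 min with Axl primary/secondary antibody cluster. Fixed cells probed for phospho-Akt by chemiluminescent in-cell Western; signal normalized to crystal violet cell number.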

Axl, sequence (P30530 26-894): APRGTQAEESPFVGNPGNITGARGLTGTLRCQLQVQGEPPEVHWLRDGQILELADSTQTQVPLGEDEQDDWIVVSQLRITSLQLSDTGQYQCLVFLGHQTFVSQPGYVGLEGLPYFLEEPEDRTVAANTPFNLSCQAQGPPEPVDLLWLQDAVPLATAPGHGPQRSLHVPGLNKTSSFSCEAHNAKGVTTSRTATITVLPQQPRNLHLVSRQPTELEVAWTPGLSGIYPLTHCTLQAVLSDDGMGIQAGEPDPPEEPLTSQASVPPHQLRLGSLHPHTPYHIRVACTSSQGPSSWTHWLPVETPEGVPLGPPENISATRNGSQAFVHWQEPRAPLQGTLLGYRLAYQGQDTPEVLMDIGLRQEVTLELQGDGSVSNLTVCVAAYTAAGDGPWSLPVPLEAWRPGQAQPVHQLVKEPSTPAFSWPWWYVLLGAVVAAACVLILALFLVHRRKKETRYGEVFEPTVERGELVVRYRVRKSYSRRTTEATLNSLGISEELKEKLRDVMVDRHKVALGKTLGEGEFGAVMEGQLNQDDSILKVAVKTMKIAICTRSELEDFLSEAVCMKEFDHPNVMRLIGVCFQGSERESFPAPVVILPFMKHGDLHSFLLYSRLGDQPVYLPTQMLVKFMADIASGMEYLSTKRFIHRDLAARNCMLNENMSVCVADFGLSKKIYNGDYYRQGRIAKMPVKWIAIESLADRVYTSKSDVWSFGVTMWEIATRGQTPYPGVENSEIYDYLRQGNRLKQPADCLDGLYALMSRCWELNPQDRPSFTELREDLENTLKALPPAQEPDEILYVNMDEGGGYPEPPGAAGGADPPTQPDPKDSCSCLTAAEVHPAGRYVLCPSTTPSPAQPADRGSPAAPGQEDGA

| IC50 | SMILES |
| --- | --- |
| > 20000 nM | Nc1nc(Nc2ccc(OCCN3CCCCC3)cc2)nn1-c1ccnc(Cl)c1 [Compound 10, 1-(2-chloropyridin-4-yl)-N^3-(4-(2-(piperidin-1-yl)ethoxy)phenyl)-1H-1,2,4-triazole-3,5-diamine] |
| < 1000 nM | Nc1nc(Nc2ccc(OCCN3CCCC3)cc2)nn1-c1nccc2occc12 [Compound 69, 1-(furo[3,2-c]pyridin-4-yl)-N^3-(4-(2-(pyrrolidin-1-yl)ethoxy)phenyl)-1H-1,2,4-triazole-3,5-diamine] |
| < 1000 nM | Nc1nc(Nc2ccc(OCCN3CCCC3)cc2)nn1-c1nc(Cl)nc2sccc12 [Compound 176, 1-(2-chlorothieno[2,3-d]pyrimidin-4-yl)-N^3-(4-(2-pyrrolidin-1-ylethoxy)phenyl)-1H-1,2,4-triazole-3,5-diamine] |
| < 1000 nM | Nc1nc(Nc2ccc(OCCN3CCCC3)c(F)c2)nn1-c1nc2ccccc2s1 [Compound 56, 1-(benzo[d]thiazol-2-yl)-N^3-(3-fluoro-4-(2-(pyrrolidin-1-yl)ethoxy)phenyl)-1H-1,2,4-triazole-3,5-diamine] |
| < 1000 nM | COc1cc2nc(Cl)nc(-n3nc(Nc4ccc(OCCN5CCCC5)cc4)nc3N)c2cc1OC [Compound 44, 1-(2-chloro-6,7-dimethoxyquinazolin-4-yl)-N^3-(4-(2-(pyrrolidin-1-yl)ethoxy)phenyl)-1H-1,2,4-triazole-3,5-diamine] |
| < 1000 nM | Nc1nc(Nc2ccc(OCCN3CCCC3)cc2)nn1-c1nccc2ccsc12 [Compound 64, N^3-(4-(2-(pyrrolidin-1-yl)ethoxy)phenyl)-1-(thieno[2,3-c]pyridin-7-yl)-1H-1,2,4-triazole-3,5-diamine] |
| > 20000 nM | Nc1nc(Nc2ccc(OCCN3CCCCC3)cc2)nn1-c1ccccc1 [Compound 1, 1-phneyl-N^3-(4-(2-(piperidin-1-yl)ethoxy)phenyl)-1H-1,2,4-triazole-3,5-diamine] |
| > 20000 nM | Nc1nc(Nc2ccc(OCCN3CCCC3)cc2)nn1-c1nc2ccccc2s1 [Compound 11, 1-(benzo[d]thiazol-2-yl)-N^3-(4-(2-(pyrrolidin-1-yl)ethoxy)phenyl)-1H-1,2,4-triazole-3,5-diamine] |
| < 1000 nM | Nc1nc(Nc2ccc(OCCN3CCCC3)c(Cl)c2)nn1-c1nc2ccccc2s1 [Compound 39, 1-(benzo[d]thiazol-2-yl)-N^3-(3-chloro-4-(2-(pyrrolidin-1-yl)ethoxy)phenyl)-1H-1,2,4-triazole-3,5-diamine] |
| < 1000 nM | Nc1nc(Nc2ccc(OCCN3CCCC3)c(F)c2)nn1-c1ccccn1 [Compound 57, N^3-(3-fluoro-4-(2-(pyrrolidin-1-yl)ethoxy)phenyl)-1-(pyridin-2-yl)-1H-1,2,4-triazole-3,5-diamine] |

Same assay, conditions: inhibition of Axl activity, Hela cells, phospho-Akt readout; Table 5, formula (Ia3)

| SMILES | IC50 |
| --- | --- |
| COc1cc2c(-n3nc(Nc4ccc(C5CCN(C)CC5)cc4)nc3N)ncnc2cc1O [Compound 169, 4-(5-amino-3-(4-(1-methylpiperidin-4-yl)phenylamino)-1H-1,2,4-triazol-1-yl)-6-methoxyquinazolin-7-ol] | < 1000 nM |
| Cc1csc2c(-n3nc(Nc4ccc(C(=O)N5CCN(C6CCCC6)CC5)cc4)nc3N)ncnc12 [Compound 207, 1-(7-methylthieno[3,2-d]pyrimidin-4-yl)-N^3-(4-(4-(cyclopentyl)piperazin-1-ylcarbonyl)phenyl)-1H-1,2,4-triazole-3,5-diamine] | < 1000 nM |
| CCN(CC)C1CCN(c2ccc(Nc3nc(N)n(-c4nc(Cl)nc5c(C)csc45)n3)cc2F)C1 (centres unmarked) [Compound 211, 1-(7-methyl-2-chlorothieno[3,2-d]pyrimidin-4-yl)-N^3-(3-fluoro-4-(3-diethylaminopyrrolidin-1-yl)phenyl)-1H-1,2,4-triazole-3,5-diamine] | < 1000 nM |
| COc1cc2ncnc(-n3nc(Nc4ccc(N5CCC(N6CCCCC6)CC5)c(F)c4)nc3N)c2cc1OC [Compound 209, 1-(6,7-dimethoxyquinazolin-4-yl)-N^3-(3-fluoro-4-(4-piperidin-1-ylpiperidin-1-yl)phenyl)-1H-1,2,4-triazole-3,5-diamine] | < 1000 nM |
| Nc1nc(Nc2cc(F)c(F)c(F)c2)nn1-c1ccccn1 [Compound 149, 1-(pyridin-2-yl)-N^3-(3,4,5-trifluorophenyl)-1H-1,2,4-triazole-3,5-diamine] | > 20000 nM |
| COc1cc2ncnc(-n3nc(Nc4ccc(C(=O)N5CCN(C6CCCC6)CC5)cc4)nc3N)c2cc1OC [Compound 206, 1-(6,7-dimethoxyquinazolin-4-yl)-N^3-(4-(4-(cyclopentyl)piperazin-1-ylcarbonyl)phenyl)-1H-1,2,4-triazole-3,5-diamine] | < 1000 nM |

Continued, values first:

| IC50 | SMILES |
| --- | --- |
| > 20000 nM | COc1ccc(Nc2nc(N)n(-c3ccccn3)n2)cc1 [Compound 142, N^3-(4-methoxyphenyl)-1-(pyridin-2-yl)-1H-1,2,4-triazole-3,5-diamine] |
| < 1000 nM | CN(C)[C@H]1CCN(c2ccc(Nc3nc(N)n(-c4nccc5ccccc45)n3)cc2)C1 [Compound 165, N^3-(4-((S)-3-(dimethylamino)pyrrolidin-1-yl)phenyl)-1-(isoquinolin-1-yl)-1H-1,2,4-triazole-3,5-diamine] |
| < 1000 nM | CN1CCCC(Oc2ccc(Nc3nc(N)n(-c4nccc5ccccc45)n3)cc2)C1 (centres unmarked) [Compound 155, 1-(isoquinolin-1-yl)-N^3-(4-(1-methylpiperidin-3-yloxy)phenyl)-1H-1,2,4-triazole-3,5-diamine] |
| > 20000 nM | CC(=O)c1ccc(Nc2nc(N)n(-c3cnc4ccccc4n3)n2)cc1 [Compound 144, 1-(4-(5-amino-1-(quinoxalin-2-yl)-1H-1,2,4-triazol-3-ylamino)phenyl)ethanone] |

Same assay, conditions: inhibition of Axl activity, Hela cells, phospho-Akt readout; Table 6, formula (Ib3)

| IC50 | SMILES |
| --- | --- |
| > 20000 nM | Nc1nc(Nc2ccc(N3CCOCC3)cc2)n(-c2nccc3ccccc23)n1 [Compound 157, 1-(isoquinolin-1-yl)-N^5-(4-morpholinophenyl)-1H-1,2,4-triazole-3,5-diamine] |

Same assay, conditions: inhibition of Axl activity, Hela cells, phospho-Akt readout; Table 7, formula (Ia4)

| IC50 | SMILES |
| --- | --- |
| < 1000 nM | COc1cc2ncnc(-n3nc(Nc4ccc5c(c4)CCC(N(C)C4CC6CCC4C6)CC5)nc3N)c2cc1OC (centres unmarked) [Compound 224, 1-(6,7-dimethoxy-quinazolin-4-yl)-N^3-(7-(N-methyl-N-bicyclo[2.2.1]heptan-2-yl)amino-6,7,8,9-tetrahydro-5H-benzo[7]annulene-2-yl)-1H-1,2,4-triazole-3,5-diamine] |
| < 1000 nM | Cc1csc2c(-n3nc(Nc4ccc5c(c4)CCC(NC4CC6CCC4C6)CC5)nc3N)nc(Cl)nc12 (centres unmarked) [Compound 222, 1-(7-methyl-2-chlorothieno[3,2-d]pyrimidin-4-yl)-N^3-(7-(N-bicyclo[2.2.1]heptan-2-yl)amino-6,7,8,9-tetrahydro-5H-benzo[7]annulene-2-yl)-1H-1,2,4-triazole-3,5-diamine] |

Same assay, conditions: inhibition of Axl activity, phospho-Akt in-cell Western assay

| SMILES | IC50 |
| --- | --- |
| Cc1csc2c(-n3nc(Nc4ccc(N5CCN([C@H]6C[C@@H]7CC[C@H]6C7)CC5)c(F)c4)nc3N)ncnc12 [Compound 201, 1-(7-methylthieno[3,2-d]pyrimidin-4-yl)-N^3-(3-fluoro-4-(4-((1S,2S,4R)-bicyclo[2.2.1]heptan-2-yl)-piperazin-1-yl)phenyl)-1H-1,2,4-triazole-3,5-diamine] | < 1000 nM |
| CC(C)(C)c1cc2ncnc(-n3nc(Nc4ccc(N5CCN(C6CC7CCC6C7)CC5)cc4)nc3N)c2s1 (centres unmarked) [Compound 187, 1-(6-(1,1-dimethylethyl)thieno[3,2-d]pyrimidin-4-yl)-N^3-(4-(4-(bicyclo[2.2.1]heptan-2-yl)-piperazin-1-yl)phenyl)-1H-1,2,4-triazole-3,5-diamine] | < 1000 nM |
| COc1cc2cnc(-n3nc(Nc4ccc(N5CCN([C@H]6C[C@@H]7CC[C@H]6C7)CC5)cc4)nc3N)nc2cc1OC (racemic) [Compound 182, 1-(6,7-dimethoxyquinazolin-2-yl)-N^3-(4-(4-((1S,2S,4R)-bicyclo[2.2.1]heptan-2-yl)-piperazin-1-yl)phenyl)-1H-1,2,4-triazole-3,5-diamine] | > 20000 nM |
| Cc1cc(Nc2nc(N)n(-c3ncnc4c(C)csc34)n2)ccc1N1CCN([C@H]2C[C@@H]3CC[C@H]2C3)[C@H](C)C1 [Compound 254, 1-(7-methylthieno[3,2-d]pyrimidin-4-yl)-N^3-(3-methyl-4-(3-(R)-methyl-4-((1S,2S,4R)-bicyclo[2.2.1]heptan-2-yl)piperazin-1-yl)phenyl)-1H-1,2,4-triazole-3,5-diamine] | < 1000 nM |
| COc1cc2ncnc(-n3nc(Nc4ccc(N5CCN(C6CCCCCC6)CC5)cc4)nc3N)c2cc1OC [Compound 110, N^3-(4-(4-cycloheptylpiperazin-1-yl)phenyl)-1-(6,7-dimethoxyquinazolin-4-yl)-1H-1,2,4-triazole-3,5-diamine] | < 1000 nM |

Results, then the molecule that gave them:

| IC50 | SMILES |
| --- | --- |
| 1000 to 10000 nM | Cc1csc2c(-n3nc(Nc4ccc(N5CCN([C@H]6CC7CCC6C7)CC5)cc4)nc3N)nc(-c3ccccc3Cl)nc12 (stereo partly drawn) [Compound 235, 1-(7-methyl-2-(2-chlorophenyl)thieno[3,2-d]pyrimidin-4-yl)-N^3-(4-(4-((2S)-bicyclo[2.2.1]heptan-2-yl)piperazin-1-yl)phenyl)-1H-1,2,4-triazole-3,5-diamine] |
| < 1000 nM | Cc1csc2c(-n3nc(Nc4ccc(N5CCN([C@H]6CC7CCC6C7)CC5)cc4)nc3N)nc(-c3ccncc3)nc12 (stereo partly drawn) [Compound 237, 1-(7-methyl-2-pyridin-4-ylthieno[3,2-d]pyrimidin-4-yl)-N^3-(4-(4-((2S)-bicyclo[2.2.1]heptan-2-yl)piperazin-1-yl)phenyl)-1H-1,2,4-triazole-3,5-diamine] |
| < 1000 nM | Nc1nc(Nc2ccc(N3CCN(C4CC5CCC4C5)CC3)cc2)nn1-c1ncnc2c1sc1ncccc12 (centres unmarked) [Compound 184, 1-(pyrido[2,3-b]pyrimido[4,5-d]thiophene-4-yl)-N^3-(4-(4-(bicyclo[2.2.1]heptan-2-yl)-piperazin-1-yl)phenyl)-1H-1,2,4-triazole-3,5-diamine] |
| < 1000 nM | Cc1nnc(-n2nc(Nc3ccc(N4CCN(C5CC6CCC5C6)CC4)cc3)nc2N)c2sccc12 (centres unmarked) [Compound 198, 1-(4-methylthieno[3,2-d]pyridazin-7-yl)-N^3-(4-(4-(bicyclo[2.2.1]heptan-2-yl)-piperazin-1-yl)phenyl)-1H-1,2,4-triazole-3,5-diamine] |
